From patent publication US8952024B2, “Herbicidal pyrimidone derivatives” (E I du Pont de Nemours and Company, priority 2009, dated 2015)

What was measured:
Experiment in all cases: Test B pre-/postemergence plant response
Format in all cases: in vivo
[1] = system: Italian ryegrass (Lolium multiflorum)
How it was run: (§1)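 Test compounds, formulated in a non-phytotoxic solvent mixture with surfactant, are applied to the soil surface (loam and sand blend) right after seeding, or sprayed over plants at the 1- to 4-leaf stage grown in peat moss/vermiculite medium. After 13 to 15 days under glasshouse conditions, each species is scored visually from 0 (no effect) to 100 (complete control) against controls.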

[2] = system: blackgrass (Alopecurus myosuroides)
How it was run: as §1

[3] = system: johnsongrass (Sorghum halepense)
How it was run: as §1

[4] = system: ragweed (common ragweed, Ambrosia elatior)
How it was run: as §1

wild oat (Avena fatua) = system: wild oat (Avena fatua)
How it was run: as §1

[5] = system: velvetleaf (Abutilon theophrasti)
How it was run: as §1

[6] = system: woolly cupgrass (Eriochloa villosa)
How it was run: as §1

[7] = system: yellow nutsedge (Cyperus esculentus)
How it was run: as §1

[8] = Postemergence, 31 g ai/ha, 0 to 100 scale (0 no effect, 100 complete control)
[9] = Postemergence, 125 g ai/ha, scale 0 (no effect) to 100 (complete control), 13 to 15 days
[10] = Postemergence, 250 g ai/ha, scale 0 to 100 (0 no effect, 100 complete control), 13 to 15 days
[11] = Postemergence, 62 g ai/ha, scale 0 to 100 (0 no effect, 100 complete control)
[12] = Preemergence, 31 g ai/ha, scale 0 to 100 (0 no effect, 100 complete control)
[13] = Preemergence, 62 g ai/ha, scale 0 to 100, 0 no effect, 100 complete control
[14] = Preemergence, 125 g ai/ha, scale 0 to 100, 0 no effect, 100 complete control
[15] = Preemergence, 250 g ai/ha, 0 to 100 scale

COCCCn1c(-c2cc(F)cc(F)c2)ncc(C(=O)C2=C(O)C3CCC(C3)C2=O)c1=O (stereo not shown) [Compound 244]
Plant response rating, Ryegrass, Italian [1, 8]: 35 | Plant response rating, Ryegrass, Italian [1, 9]: 80 | Plant response rating, Ryegrass, Italian [1, 10]: 95 | Plant response rating, Ryegrass, Italian [1, 11]: 60 | Plant response rating, Ryegrass, Italian [1, 12]: 0 | Plant response rating, Ryegrass, Italian [1, 13]: 0 | Plant response rating, Ryegrass, Italian [1, 14]: 5 | Ryegrass, Italian plant response rating [1, 15]: 45 | Plant response rating, Blackgrass [2, 8]: 50 | Plant response rating, Blackgrass [2, 9]: 65 | Plant response rating, Blackgrass [2, 10]: 85 | Plant response rating, Blackgrass [2, 11]: 60 | Plant response rating, Blackgrass [2, 12]: 35 | Plant response rating, Blackgrass [2, 13]: 35 | Plant response rating, Blackgrass [2, 14]: 60 | Blackgrass plant response rating [2, 15]: 70 | Plant response rating, Johnsongrass [3, 8]: 85 | Plant response rating, Johnsongrass [3, 9]: 100 | Plant response rating, Johnsongrass [3, 10]: 100 | Plant response rating, Johnsongrass [3, 11]: 95 | Plant response rating, Johnsongrass [3, 12]: 70 | Plant response rating, Johnsongrass [3, 13]: 85 | Plant response rating, Johnsongrass [3, 14]: 100 | Johnsongrass plant response rating [3, 15]: 100 | Plant response rating, Ragweed [4, 8]: 98 | Plant response rating, Ragweed [4, 9]: 98 | Plant response rating, Ragweed [4, 10]: 100 | Plant response rating, Ragweed [4, 11]: 98 | Plant response rating, Ragweed [4, 12]: 70 | Plant response rating, Ragweed [4, 13]: 95 | Plant response rating, Ragweed [4, 14]: 100 | Ragweed plant response rating [4, 15]: 100 | Plant response rating, Oat, Wild (wild oat (Avena fatua); [8]): 50 | Plant response rating, Oat, Wild (wild oat (Avena fatua); [9]): 95 | Plant response rating, Oat, Wild (wild oat (Avena fatua); [10]): 98 | Plant response rating, Oat, Wild (wild oat (Avena fatua); [11]): 70 | Plant response rating, Oat, Wild (wild oat (Avena fatua); [12]): 0 | Plant response rating, Oat, Wild (wild oat (Avena fatua); [13]): 5 | Plant response rating, Oat, Wild (wild oat (Avena fatua); [14]): 10 | Oat, Wild plant response rating (wild oat (Avena fatua); [15]): 40 | Plant response rating, Velvetleaf [5, 8]: 100 | Plant response rating, Velvetleaf [5, 9]: 100 | Plant response rating, Velvetleaf [5, 10]: 100 | Plant response rating, Velvetleaf [5, 11]: 100 | Plant response rating, Velvetleaf [5, 12]: 100 | Plant response rating, Velvetleaf [5, 13]: 100 | Plant response rating, Velvetleaf [5, 14]: 100 | Velvetleaf plant response rating [5, 15]: 100 | Plant response rating, Cupgrass, Woolly [6, 8]: 100 | Plant response rating, Cupgrass, Woolly [6, 9]: 100 | Plant response rating, Cupgrass, Woolly [6, 10]: 100 | Plant response rating, Cupgrass, Woolly [6, 11]: 100 | Plant response rating, Cupgrass, Woolly [6, 12]: 45 | Plant response rating, Cupgrass, Woolly [6, 13]: 55 | Plant response rating, Cupgrass, Woolly [6, 14]: 95 | Cupgrass, Woolly plant response rating [6, 15]: 100 | Plant response rating, Nutsedge, Yellow [7, 8]: 45 | Plant response rating, Nutsedge, Yellow [7, 9]: 65 | Plant response rating, Nutsedge, Yellow [7, 10]: 75 | Plant response rating, Nutsedge, Yellow [7, 11]: 50 | Plant response rating, Nutsedge, Yellow [7, 12]: 20 | Plant response rating, Nutsedge, Yellow [7, 13]: 60 | Plant response rating, Nutsedge, Yellow [7, 14]: 80 | Nutsedge, Yellow plant response rating [7, 15]: 95
